Test results as given in publication PMC11855827, “High-Throughput Screening of Five Compound Libraries for Anthelmintic Activity and Toxicity Leads to the Discovery of Two Flavonoid Compounds” (International Journal of Molecular Sciences, 2025).
“And” between values parts separate entries of the source, which are not always exact repeats. Identical values can stand only once. Like-named read-outs stand apart in the source and are kept apart here.

Test system: C. elegans
[1] = Table S2, C. elegans SS assay, 110 μM, 0 h, averages of 4 data points
[2] = Table S2, C. elegans SS assay, 110 μM, 24 h, averages of 4 data points

Structure (SMILES) | Percentage of motility inhibition 0 h [1] | Percentage of motility inhibition 24 h [2] | Percentage of motility inhibition 0 h (110 µM) | Percentage of motility inhibition 24 h (110 µM)
CC1(C)CC[C@]2(C(=O)O[C@@H]3O[C@H](CO)[C@@H](O)[C@H](O)[C@H]3O)CC[C@]3(C)C(=CC[C@@H]4[C@@]5(C)CC[C@H](O[C@@H]6O[C@H](C(=O)O)[C@@H](O)[C@H](O)[C@H]6O[C@@H]6O[C@H](CO)[C@@H](O)[C@H](O)[C@H]6O)C(C)(C)[C@@H]5CC[C@]43C)[C@@H]2C1 [Ginsenoside Ro] | 1% | 0% | – | –
O=C([O-])[C@H](O)[C@@H](O)[C@H](O)[C@H](O)CO.[Na+] [Gluconate (sodium)] | 15% | 3% | – | –
C[S+]([O-])CCCC/C(=N\OS(=O)(=O)O)S[C@@H]1O[C@H](CO)[C@@H](O)[C@H](O)[C@H]1O (stereo partly shown) [Glucoraphanin] | 12% | 0% | – | –
NCC(=O)O [Glycine] | – | – | 32% | 13%
COc1cc2c(=O)c(-c3ccc(O)cc3)coc2cc1O[C@@H]1O[C@H](CO)[C@@H](O)[C@H](O)[C@H]1O [Glycitin] | 30% | 4% | – | –
C[C@H](CCC(=O)NCC(=O)[O-])[C@H]1CC[C@H]2[C@@H]3[C@H](O)C[C@@H]4C[C@H](O)CC[C@]4(C)[C@H]3C[C@H](O)[C@]12C.[Na+] [Glycocholic acid (sodium)] | 0% | 0% | – | –
O=C(O)CO [Glycolic acid] | 5% | 6% | – | –
C[C@H](CCC(=O)NCC(=O)O)[C@H]1CC[C@H]2[C@@H]3CC[C@@H]4C[C@H](OS(=O)(=O)O)CC[C@]4(C)[C@H]3CC[C@]12C [Glycolithocholic acid 3-sulfate] | 13% | 33% | – | –
CC1(C)[C@@H](O[C@@H]2O[C@H](C(=O)O)[C@@H](O)[C@H](O)[C@H]2O)CC[C@]2(C)[C@H]3C(=O)C=C4[C@@H]5C[C@@](C)(C(=O)O)CC[C@]5(C)CC[C@@]4(C)[C@]3(C)CC[C@@H]12 [Glycyrrhetic acid 3-O-β-D-glucuronide] | 2% | 22% | – | –
CC(=O)O.Cc1cc2c(C(C)C)c(O)c(O)c(C=O)c2c(O)c1-c1c(C)cc2c(C(C)C)c(O)c(O)c(C=O)c2c1O [Gossypol (acetic acid)] | 0% | 7% | – | –
COc1cc2c(cc1O)CC[n+]1cc3c4c(ccc3cc1-2)OCO4 [Groenlandicine] | 0% | 0% | – | –
O=c1c(O[C@@H]2OC[C@H](O)[C@H](O)[C@H]2O)c(-c2ccc(O)c(O)c2)oc2cc(O)cc(O)c12 [Guaijaverin] | 0% | 25% | – | –
C=C1CC23CC4[C@@H]5[C@@]6(C)C[C@H](OC(C)=O)C[C@]57C(N4C6)[C@@]2(O)C(OC(C)=O)[C@H]1[C@@H](O)[C@H]37 (stereo partly shown) [Guanfu base A] | 0% | 0% | – | –
COC(=O)C1=CCCNC1.Cl [Guvacoline (hydrochloride)] | 0% | 0% | – | –
CC1(C)C[C@H]2C3=CC[C@@H]4[C@@]5(C)CC[C@H](O)[C@@](C)(CO)[C@@H]5CC[C@@]4(C)[C@]3(C)C[C@H](O)[C@@]2(CO)[C@@H](O)[C@@H]1O [Gymnemagenin] | 0% | 52% | – | –
C/C=C(\C)C(=O)O[C@H]1[C@H](O)[C@]2(COC(C)=O)[C@@H](O)C[C@]3(C)C(=CC[C@@H]4[C@@]5(C)CC[C@H](O[C@@H]6O[C@H](C(=O)O)[C@@H](O)[C@H](O)[C@H]6O)[C@@](C)(CO)[C@@H]5CC[C@]43C)[C@@H]2CC1(C)C [Gymnemic acid I] | 20% | 0% | – | –
CC(C)=CC1CC(O)(C2CCC3(C)C2CCC2C4(C=O)CCC(OC5OCC(O)C(OC6OCC(O)C(O)C6O)C5OC5OC(C)C(O)C(O)C5O)C(C)(C)C4CCC23C)C(O)O1 (stereo not shown) [Gypenoside A] | 0% | 0% | – | –

Structure (SMILES) | Percentage of motility inhibition 0 h [1] | Percentage of motility inhibition 24 h [2] | Percentage of motility inhibition 0 h (110 µM) | Percentage of motility inhibition 24 h (110 µM)
CC(C)=CCC[C@@](C)(O)[C@H]1CC[C@]2(C)[C@@H]1[C@H](O)C[C@@H]1[C@@]3(C)C[C@@H](O)[C@H](O[C@@H]4O[C@H](CO)[C@@H](O)[C@H](O)[C@H]4O[C@@H]4O[C@H](CO)[C@@H](O)[C@H](O)[C@H]4O)C(C)(C)[C@@H]3CC[C@]12C [Gypenoside LI] | 0% | 0% | – | –
CC(C)=CCC[C@](C)(O)[C@H]1CC[C@]2(C)[C@@H]1[C@H](O)C[C@@H]1[C@@]3(C)C[C@@H](O)[C@H](O[C@@H]4O[C@H](CO)[C@@H](O)[C@H](O)[C@H]4O[C@@H]4O[C@H](CO)[C@@H](O)[C@H](O)[C@H]4O)C(C)(C)[C@@H]3CC[C@]12C [Gypenoside L] | 22% | 15% | – | –
CC(C)=CCC[C@](C)(O[C@@H]1O[C@H](CO[C@@H]2OC[C@@H](O)[C@H](O)[C@H]2O)[C@@H](O)[C@H](O)[C@H]1O)[C@H]1CC[C@]2(C)[C@@H]1[C@H](O)C[C@@H]1[C@@]3(C)CC[C@H](O)C(C)(C)[C@@H]3CC[C@]12C [Gypenoside XIII] | 7% | 13% | – | –
CC(C)=CCC[C@@](O)(CO[C@@H]1O[C@H](CO)[C@@H](O)[C@H](O)[C@H]1O)[C@H]1CC[C@]2(C)[C@@H]1CC[C@@H]1[C@@]3(C=O)CC[C@H](O[C@@H]4OC[C@H](O)[C@H](O[C@@H]5OC[C@@H](O)[C@H](O)[C@H]5O)[C@H]4O[C@@H]4O[C@@H](C)[C@H](O)[C@@H](O)[C@H]4O)C(C)(C)[C@@H]3CC[C@]12C [Gypenoside XLIX] | 3% | 6% | – | –
CC(C)=CCCC(C)(OC1OC(CO)C(O)C(O)C1O)C1CCC2(C)C1C(O)CC1C3(C)CC(O)C(OC4OC(CO)C(O)C(O)C4OC4OC(CO)C(O)C(O)C4O)C(C)(C)C3CCC12C (stereo not shown) [Gypenoside XLVI] | 1% | 2% | – | –
CN[C@H]1[C@H](O)[C@H](O[C@@H]2[C@@H](O)[C@H](O[C@H]3O[C@H](C(C)O)[C@@H](O)[C@H](O)[C@H]3N)[C@@H](N)C[C@H]2N)OC[C@@]1(C)O.O=S(=O)(O)O.O=S(=O)(O)O (stereo partly shown) [G‐418 (disulfate)] | 26% | 11% | – | –
CCCC(C(=O)O)c1c(C)nc2ccc(Cl)cc2c1-c1ccccc1 (stereo not shown) [HIV‐1 integrase inhibitor 2] | 14% | 13% | – | –
[N-]=[N+]=NCc1cccc(/C(O)=C/C(=O)C(=O)O)c1 [HIV‐1 integrase inhibitor] | 22% | 10% | – | –
Br.O=C(CC1NCCCC1O)Cn1cnc2cc(Br)c(Cl)cc2c1=O (stereo not shown) [Halofuginone (hydrobromide)] | 4% | 0% | – | –
CC1=NCCc2c1[nH]c1cc(O)ccc21.Cl [Harmalol (hydrochloride)] | 17% | 2% | – | –
COc1ccc2c(c1)[nH]c1c(C)nccc12.Cl [Harmine (hydrochloride)] | 22% | 11% | – | –
COC(=O)C1=CO[C@@H](O[C@@H]2O[C@H](CO)[C@@H](O)[C@H](O)[C@H]2O)[C@@H]2[C@@H](C)CC(=O)[C@]12O [Hastatoside] | 0% | 8% | – | –
C[C@@H]1O[C@@H](O[C@H]2[C@H](O[C@H]3CC[C@@]4(C)[C@@H](CC[C@]5(C)[C@@H]4CC=C4[C@@H]6CC(C)(C)CC[C@]6(C(=O)O[C@@H]6O[C@H](CO[C@@H]7O[C@H](CO)[C@@H](O[C@@H]8O[C@@H](C)[C@H](O)[C@@H](O)[C@H]8O)[C@H](O)[C@H]7O)[C@@H](O)[C@H](O)[C@H]6O)CC[C@]45C)[C@]3(C)CO)OC[C@H](O)[C@@H]2O)[C@H](O)[C@H](O)[C@H]1O [Hederacoside C] | 18% | 0% | – | –
C[C@@H]1O[C@@H](O[C@H]2[C@H](O)[C@@H](O)[C@H](OC[C@H]3O[C@@H](OC(=O)[C@]45CCC(C)(C)C[C@H]4C4=CC[C@@H]6[C@@]7(C)CC[C@H](O[C@@H]8OC[C@H](O)[C@H](O)[C@H]8O)[C@@](C)(CO)[C@@H]7CC[C@@]6(C)[C@]4(C)CC5)[C@H](O)[C@@H](O)[C@@H]3O)O[C@@H]2CO)[C@H](O)[C@H](O)[C@H]1O [Hederacoside D] | 2% | 2% | – | –
O=Cc1ccc(O[C@@H]2O[C@H](CO)[C@@H](O)[C@@H](O)[C@H]2O)cc1 [Helicid] | 11% | 4% | – | –
COc1ccc([C@@H]2CC(=O)c3c(O)cc(O[C@@H]4O[C@H](CO)[C@@H](O)[C@H](O)[C@H]4O)cc3O2)cc1O [Hesperetin 7‐O‐glucoside] | 16% | 14% | – | –
COc1ccc([C@@H]2CC(=O)c3c(O)cc(O[C@@H]4O[C@H](CO[C@@H]5O[C@@H](C)[C@H](O)[C@@H](O)[C@H]5O)[C@@H](O)[C@H](O)[C@H]4O)cc3O2)cc1O [Hesperidin] | – | 2% and 0% | – | –
